As a reminder, the MIC is the lowest concentration found to suppress growth. As a reminder, the MBC is the lowest tested concentration that kills the bacteria rather than only halting them.

Molecules are shown by their SMILES. Converted amounts (≈) assume the structure as drawn. Bounds are passed on as bounds.

Data set [1] relates to VERO cells. In words: Cytotoxicity, microculture tetrazolium (MTT) test, VERO. Type of data set: cell-based. To be noted: VERO, 24 h, microscopy. How it is done: The cytotoxicity of biaryl monophosphines was tested in vitro in normal (VERO) and cancer-derived (H1HeLa) cells after 24 h of incubation using a microculture tetrazolium test. Table 2 presents the CC50 (concentrations decreasing the cellular viability by 50%) values calculated from dose–response cytotoxicity curves (Figure 4).
Cytotoxicity was evaluated using a microculture tetrazolium test as previously described, and details can be found in the Supplementary Materials. The cell lines used in the presented study were acquired from the American Type Culture Collection (ATCC); the one used for cytotoxicity testing included non-cancerous VERO (kidney; ATCC CCL-81) cells and cancer-originating H1HeLa (cervical adenocarcinoma; ATCC CRL-1958) cells. VERO cells were cultured in Dulbecco’s Modified Eagle’s Medium (DMEM; Corning, Tewksbury, MA, USA), while Eagle’s Minimum Essential Medium (MEM; Corning) was used for H1HeLa. Antibiotics (penicillin–streptomycin solution, Corning) and fetal bovine serum (FBS, Corning) were added to cell media. Cells were incubated in a 5% CO2 atmosphere at 37 °C (CO2 incubator, Panasonic Healthcare Co., Tokyo, Japan). Briefly, the monolayers of VERO or H1HeLa cells in 96-well plates (Falcon, Corning) were treated with serial dilutions of selected compounds for 24 h. After this, the medium was removed, the plates were washed with phosphate buffered saline (PBS; Corning), a 10% solution of (3-(4,5-dimethylthiazol-2-yl)-2,5-diphenyltetrazolium bromide (MTT; Sigma-Aldrich, St. Louis, MO, USA) (5 mg/mL) in FBS-free cell media was added, and the incubation continued for the next 4 h. Subsequently, the precipitated formazan crystals were dissolved, and after overnight incubation at 37 °C, the Synergy H1 Multi-Mode Microplate Reader (BioTek Instruments, Inc., Winooski, VT, USA) with Gen5 software (ver. 3.09.07; BioTek Instruments, Inc.) was used for absorbance acquisition (540 and 620 nm). Data was exported to GraphPad Prism (ver. 10) to calculate the CC50 values (50% cytotoxic concentration) from dose–response curves.
Aromaticity Tuning in Biaryl Monophosphines and Their Derivatives […]
Cell line maintenance and in vitro experiments
The cytotoxicity of selected biaryl monophosphines was evaluated in vitro towards normal VERO (ATCC, CCL-81) cells and cancer-derived cell line H1HeLa (cervical adenocarcinoma; ATCC (American Type Culture Collection) CRL-1958) using 3-(4,5-dimethylthiazol-2-yl)-2,5-diphenylte-trazolium bromide (MTT) based protocol.
Media used for in vitro culturing included Dulbecco's Modified Eagle's Medium (DMEM, Corning, Tewksbury, MA, USA) used for VERO cells and Modified Eagle Medium (MEM, Corning) used for H1HeLa. Cell media used in the experiments were supplemented with antibiotics (Penicil-lin-Streptomycin Solution, Corning) and fetal bovine serum (FBS, Corning) – 10% (cell passaging) and 2% (cell maintenance and experiments). Phosphate-buffered saline (PBS) and trypsin were bought from Corning, whereas MTT (3-(4,5-dimethylthiazol-2-yl)-2,5-diphenyltetrazolium bromide) from Sigma (Sigma-Aldrich, St. Louis, MO, USA). SDS was purchased from PanReac Applichem (Darmstadt, Germany). Incubation was carried out in a 5% CO2 atmosphere at 37°C (CO2 incubator, Panasonic Healthcare Co., Tokyo, Japan).
Concentrations of cells for passaging were as follows: VERO – 1.5*10^5 cells/mL, H1HeLa – 2*10^5 cells/mL. Routine observations of cell cultures and experiments were carried out using an in-verted microscope (CKX41, Olympus Corporation, Tokyo, Japan) equipped with a ca mera (Moti-cam 3+, Motic, Hong Kong), and the results were recorded (Motic Images Plus 2.0, Motic).
Stock solutions of biaryl monophosphines were prepared by dissolving the samples in cell culture grade DMSO (PanReac Applichem).
Evaluation of cytotoxicity
Cytotoxicity was tested using an MTT-based protocol. The cells were passaged into 96-well plates (Falcon, TC-treated, Corning) and, after overnight incubation, treated with serial dilutions of […]

The test system of data set [2] is S. epidermidis ATCC 12228. In words: Antibacterial screening, broth microdilution (MIC/MBC). Type of data set: cell-based, Staphylococcus epidermidis. The settings on record: for MIC / MBC: Staphylococcus epidermidis, ATCC12228; for MIC: S. epidermidis ATCC 12228, MHB, 24 h, 35 °C, read-out: MIC; for MBC: read-out: MBC. As for the experimental part:
(§1) The antimicrobial activities of a series of compounds 1–5 were tested through the utilization of seven reference species, encompassing both Gram-positive (Staphylococcus aureus ATCC 29213, Staphylococcus epidermidis ATCC 12228, Micrococcus luteus ATCC 10240) and Gram-negative (Escherichia coli ATCC 25922, Klebsiella pneumoniae ATCC 13883, Proteus mirabilis ATCC 12453, Acinetobacter baumannii ATCC 19606) bacteria as model microorganisms. For this purpose, microbial suspensions were prepared in sterile saline (0.85% NaCl) with an optical density of 0.5 McFarland standard, yielding a concentration of 150 × 10^6 CFU/mL (CFU, colony-forming units). All of the stock solutions of the tested compounds were dissolved in DMSO. Amoxicillin (Glentham Life Sciences Ltd., Corsham, UK) was used as a positive control.
The MIC values of the tested compounds were determined by serial twofold dilutions of 1–5 in Mueller Hinton Broth (MHB, Biomaxima, Lublin, Poland). The range of final 1–5 concentrations used was from 0.49 up to 1000 μg/mL, and for amoxicillin from 0.12 up to 250 μg/mL in the 96-well microtiter plates (Medlab, Raszyn, Poland), starting with 98 μL MHB and 2 μL bacterial inoculum added to each well. Positive controls consisted of 100 μL MHB in each well with the tested compounds at the same concentration range. The negative controls consisted of 100 μL of MHB only. Each set of tests and controls was established with three replicates. The microtiter plates were then subjected to an incubation period of 24 h at a temperature of 35 ± 2 °C. After incubation, the optical density of the microbial growth was measured at a wavelength of 600 nm using a microplate reader, the Biotek Elx800 (BioTek Instruments, Inc., Winooski, VT, USA). The MIC value was defined as the lowest concentration of the tested compound at which there was no visible growth of the tested microorganisms. The determination of the MIC values was achieved by employing the broth microdilution method, in accordance with the recommendations of the European Committee on Antimicrobial Susceptibility Testing (EUCAST). […] Then, the MHA plates were incubated overnight at 35 ± 2 °C. […] The MIC and MBC values were reported in μg/mL, according to the EUCAST reference.

The test system of data set [3] is Gram-positive bacteria. Description: Antibacterial screening, summary over the three Gram-positive reference species. Type of data set: cell-based. The settings on record: range over three Gram-positive reference species. How it is done:
as §1
The MIC values of the tested compounds were determined by serial twofold dilutions of 1–5 in Mueller Hinton Broth (MHB, Biomaxima, Lublin, Poland). The range of final 1–5 concentrations used was from 0.49 up to 1000 μg/mL, and for amoxicillin from 0.12 up to 250 μg/mL in the 96-well microtiter plates (Medlab, Raszyn, Poland), starting with 98 μL MHB and 2 μL bacterial inoculum added to each well. […] After incubation, the optical density of the microbial growth was measured at a wavelength of 600 nm using a microplate reader, the Biotek Elx800 (BioTek Instruments, Inc., Winooski, VT, USA). […]

In the case of `COc1cc(OC)c(-c2c(P(=O)(C3CCCCC3)C3CCCCC3)c(OC)c3ccccc3c2OC)c(OC)c1` [Compound 1, Dicyclohexyl[1,4-dimethoxy-3-(2,4,6-trimethoxyphenyl)naphthalen-2-yl]phosphane oxide], the “influence on morphology of the cellular monolayer” value (shortened to “influence on morphology”) in data set [1] (12.5 µg/mL) is listed as “some fibroblast-shaped VERO cells were noticeable”. In addition, in data set [2] (S. epidermidis ATCC 12228), the “type of activity (bactericidal or bacteriostatic)” value was “bactericidal” and the minimum bactericidal concentration (MBC) amounted to 250 µg/mL (≈ 441 µM). The minimum inhibitory concentration (MIC) in data set [2] was 15.6 to 31.2 µg/mL (≈ 27.6 to 55.1 µM).
For the compound `COc1ccccc1-c1c(P(=O)(C2CCCCC2)C2CCCCC2)c(OC)c2ccccc2c1OC` [Compound 2, Dicyclohexyl[1,4-dimethoxy-3-(2-methoxyphenyl)naphthalen-2-yl]phosphane oxide], the minimal bactericidal concentration (MBC) in data set [3] and in data set [2] (S. epidermidis ATCC 12228) was > 1000 µg/mL throughout. Also, the MIC in data set [3] was 1.95 to 15.6 µg/mL (≈ 3.85 to 30.9 µM); in data set [2], 3.91 to 7.89 µg/mL (≈ 7.72 to 15.6 µM). In data set [1] (12.5 µg/mL), the “influence on morphology” value is “some fibroblast-shaped VERO cells were noticeable”.
Take `COc1cc(OC)c(-c2c(P(=O)(C3CCCCC3)C3CCCCC3)c(O)c3ccccc3c2OC)c(OC)c1` [Compound 3, 2-(Dicyclohexylphosphoryl)-4-methoxy-3-(2,4,6-trimethoxyphenyl)naphthalen-1-ol]: the “influence on morphology” value in data set [1] (1.6 µg/mL) is on record as “the cellular monolayer resembled the control cells”; in data set [1] (3.1 µg/mL) it was “only a fraction of shrunken cells visible”; in data set [1] (6.3 µg/mL), “most of the cells showed cytotoxic damage”; in data set [1] (12.5 µg/mL) it was “destroyed the cellular monolayer”. For the same compound, the MIC in data set [2] came out at 31.2 µg/mL (≈ 56.5 µM). Besides, in data set [2] (S. epidermidis ATCC 12228), the MBC is > 1000 µg/mL.

Source of the values: paper PMC12525867, “Aromaticity Tuning in Biaryl Monophosphines and Their Derivatives” (Molecules, 2025).
